The source made the active and inactive calls. No cut-off for these calls is given here.
How the values were obtained:
Tubulin (Homo sapiens) [1] = biological target: T1, Tubulin (Homo sapiens) (UniProt P68371+Q9H4B7+P0DPH7+P68366+Q13509+Q71U36+P04350+Q3ZCM7+P07437+P68363+Q9BQE3+Q6PEY2+Q13885+Q9BVA1+Q9BUF5); conditions: at 1 µM
Description: Displacement of [3H]colchicine from tubulin (unknown origin) at 1 uM after 10 mins

Tubulin (Homo sapiens) [2] = biological target: T1, Tubulin (Homo sapiens); conditions: at 5 µM
Description: Displacement of [3H]colchicine from tubulin (unknown origin) at 5 uM after 10 mins

PANC-1 = experiment: Growth inhibition of human PANC1 cells; format: functional
MDA-MB-231 = experiment: Growth inhibition of human MDA-MB-231 cells; format: functional
PC-3 = experiment: Growth inhibition of human PC3 cells; format: functional
DU-145 = experiment: Growth inhibition of human DU145 cells; format: functional
Tubulin = experiment: Inhibition of tubulin (unknown origin) assembly after 20 mins by turbidimetric analysis; format: protein-complex assay, Homo sapiens
HCT-116 = experiment: Growth inhibition of human HCT116 cells; format: functional
[3] = Growth inhibition of human NCI60 cells; format: functional
[4] = Growth inhibition of human KBV1a cells; format: functional; conditions: pooled result: one value given for 5 cell lines, strains, targets or settings

SMILES | inhibition (Tubulin (Homo sapiens) [1]) | inhibition (Tubulin (Homo sapiens) [2]) | IC50 (Tubulin) | other results
COc1ccc(OC)c(Nc2nc(-c3cccc(OC)c3OC)no2)c1 | inactive | inactive |  | 
COc1ccc(Nc2nc(-c3cccc(OC)c3)no2)cc1 | 58% | 90% | 1900 nM | GI50 (PANC-1): 9.77 nM; GI50 (MDA-MB-231): 9.77 nM; GI50 (PC-3): 9.77 nM; GI50 (DU-145): 9.77 nM; GI50 (HCT-116): 9.77 nM
COc1cccc(-c2noc(Nc3ccc4c(c3)OCO4)n2)c1 | 40% | 76% | 2200 nM | GI50 [3]: 1230 nM
Cc1ccc(Nc2nc(-c3ccccc3F)no2)cc1F | 52% | 81% | 1600 nM | GI50 [3]: 851 nM
COc1ccc(-n2cnnc2-c2cc(OC)c(OC)c(OC)c2)cc1 |  |  |  | GI50 [4]: 464 nM
CCOc1ccc(Nc2nc(-c3ccccc3F)no2)cc1 | 42% | 76% | 1700 nM | 
COc1cccc(-c2noc(Nc3ccc(OC)c(Cl)c3)n2)c1 | 36% | 73% | 2300 nM | GI50 [3]: 562 nM
CCOc1ccc(Nc2nc(-c3cccc(OC)c3OC)no2)cc1 | 20% | 56% | 1800 nM | 

Continued, in another order:

inhibition (Tubulin (Homo sapiens) [1]) | inhibition (Tubulin (Homo sapiens) [2]) | IC50 (Tubulin) | SMILES | other results
57% | 85% | 1600 nM | Cc1ccc(Nc2nc(-c3ccccc3F)no2)cc1 | GI50 [3]: 603 nM
61% | 88% | 1400 nM | Cc1ccc(Nc2nc(-c3ccccc3)no2)cc1 | 
56% | 85% | 1500 nM | COc1cccc(-c2noc(Nc3ccc(C)cc3)n2)c1 | 
23% | 50% | 3500 nM | COc1ccc(OC)c(-c2noc(Nc3ccc4c(c3)OCCO4)n2)c1 | 
inactive | inactive |  | CCOC(=O)c1cccc(Nc2nc(-c3ccc(OC)cc3)no2)c1 | 
49% | 82% | 1200 nM | CCOc1ccc(Nc2nc(-c3ccccc3)no2)cc1 | 

Reference: ChEMBL document CHEMBL2331486, “Identification of diaryl 5-amino-1,2,4-oxadiazoles as tubulin inhibitors: the special case of 3-(2-fluorophenyl)-5-(4-methoxyphenyl)amino-1,2,4-oxadiazole” (Bioorg Med Chem Lett, 2013)
